From patent US5753661A, “Fused benzo compounds containing a nitrogen heterocycle for the treatment of central nervous system disorders” (priority 1992, dated 1998)

Legend:
5-HT1A = conditions: cited from earlier work
5-HT1A receptor [1] = molecular target: T1, 5-HT1A receptor (Rattus norvegicus, UniProt P19327); test: Antagonism of the discriminative stimulus properties induced by 8-OH-DPAT in rats (8-OH-DPAT cue); assay type: in vivo, rat (male Wistar); parameters: from tissue; host or cells: living male Wistar rat (in vivo, endogenous receptor); conditions: sc, before 8-OH-DPAT 0.4 mg/kg i.p.
T1 sequence (P19327 1-422): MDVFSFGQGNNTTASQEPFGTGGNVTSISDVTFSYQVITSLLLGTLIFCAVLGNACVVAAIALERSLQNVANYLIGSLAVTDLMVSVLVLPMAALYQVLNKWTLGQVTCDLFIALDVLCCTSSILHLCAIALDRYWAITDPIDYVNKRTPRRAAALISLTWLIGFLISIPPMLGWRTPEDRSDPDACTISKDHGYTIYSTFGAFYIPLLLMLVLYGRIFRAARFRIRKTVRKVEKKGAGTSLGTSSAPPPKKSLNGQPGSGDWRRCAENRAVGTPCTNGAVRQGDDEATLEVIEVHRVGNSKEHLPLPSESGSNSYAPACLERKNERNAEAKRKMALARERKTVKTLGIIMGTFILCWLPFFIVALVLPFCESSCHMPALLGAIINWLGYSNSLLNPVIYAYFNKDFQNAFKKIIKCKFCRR
Experimental: Antagonism of the Discriminative Stimulus Properties Induced by 8-OH-DPAT in Rats.
This test is used to determine the 5-HT1A receptor antagonistic effect of a test compound in vivo. A related method is described by Tricklebank, M. D., et al, Eur. J. Pharmacol, 1987, 133, 47-56; Amt, J. Pharmacology & Toxicology, 1989, 64, 165.
Male Wistar rats are trained to discriminate between 8-OH-DPAT (0.4 mg/kg, i.p., 15 min pretreatment) and physiological saline in operant chambers equipped with two response levers. Between the levers a dipper is placed, where water rewards (0.1 ml) are presented. The rats are water deprived for at least 24 h and work in a fixed ratio (FR) schedule (final FR=32).
Following 8-OH-DPAT administration, responding is reinforced only on a designated (drug) lever, whereas responding on the opposite lever has no consequences. Following saline administration, responding is reinforced on the lever opposite to the drug lever. Drug and saline trials alternate randomly between days. The level of discrimination accuracy is expressed as the per cent drug responses and is calculated as the number of correct responses ×100 divided by the sum of the correct and incorrect responses before the first reward. The time to the first reward is also recorded as a measure of reaction time. When stable accuracy (mean correct responding=90%; individual rats at least 75% correct responding) is obtained test sessions are included between training days. Test compound is injected s.c. or p.o. at appropriate time before 8-OH-DPAT and the test begins 15 min after 8-OH-DPAT injection. The test trial is terminated when a total of 32 responses are made on either lever or when 20 min have elapsed. No reward is given and the rats have free access to water for 20-30 min after the test. The effects are expressed as per cent inhibition of drug responding. Only results from rats making at least 10 responses on one lever are included in data analysis. Furthermore, only test sessions in which at least half of the rats respond are included.
The per cent inhibition of drug response obtained for each dose of test compound is used to calculate ED50 values by log-probit analysis.

5-HT1A receptor [2] = molecular target: T1, 5-HT1A receptor; test: Generalization to the discriminative stimulus properties induced by 8-OH-DPAT in rats (8-OH-DPAT cue, agonism); assay type: in vivo, rat (male Wistar); parameters: from tissue; host or cells: living male Wistar rat (in vivo, endogenous receptor); conditions: for ED50: rat, sc, usually 30 or 45 min before test; for agonist activity/efficacy in words, 8-OH-DPAT cue: 8-OH-DPAT cue model, s.c.
Source text: Generalization to the Discriminative Stimulus Properties Induced by 8-OH-DPAT in Rats
This test is used to determine the 5-HT1A receptor agonistic effect of a test compound in vivo. A related method is described by Tricklebank, M. D., supra; Amt, J. Pharmacology & Toxicology, 1989, 64, 165.
The per cent drug responce obtained for each dose of test compound is used to calculate ED50 values by log-probit analysis.

5-HT1A receptor [3] = molecular target: T1, 5-HT1A receptor; test: Inhibition of 3H-8-OH-DPAT binding to serotonin 5-HT1A receptors in rat brain in vitro; parameters: 5-HT1A receptors in membranes from rat brain minus cerebellum; from tissue; host or cells: rat brain minus cerebellum, membranes; conditions: 3H-8-OH-DPAT 1 nM; membranes from rat brain minus cerebellum; read-out: IC50, 3H 8-OH-DPAT binding
Experimental: Inhibition of ^3 H-8-OH-DPAT Binding to Serotonin 5-HT1A Receptors in Rat Brain in vitro.
By this method the inhibition by drugs of the binding of the 5-HT1A agonist 3H-8-OH-DPAT (1 nM) to 5-HT1A receptors in membranes from rat brain minus cerebellum is determined in vitro . Accordingly, this is a test for affinity for the 5-HT1A receptor. The assay was performed as described by Hyttel et al., Drug Dev. Res. 1988, 15, 389-404.

5-HT1A receptor [4] = molecular target: T1, 5-HT1A receptor; test: Inhibition of 5-MeO-DMT-induced 5-HT syndrome in rats; assay type: in vivo, rat (male Wistar); parameters: Male Wistar rats (Mol:Wist) weighing 170-240 g are used; from tissue; host or cells: living male Wistar rat (Mol:Wist) (in vivo, endogenous receptor); conditions: sc, 5-MeO-DMT 5 mg/kg s.c., inhibition of piano playing
Source text: Inhibition of 5-MeO-DMT-Induced 5-HT Syndrome in Rats
The so-called 5-HT syndrome is a characteristic pattern of behaviours which are induced by 5-HT agonists with effects on 5-HT, possibly 5-HT1A receptors (Smith, L. M. and Peroutka, S. J., Pharmacol. Biochem. & Behaviour, 1986, 24, 1513; Tricklebank, M. et al, Eur. J. Pharmacol. 1985, 117, 15). This test is a test for determining the antagonist effects of a test compound on 5-HT1A receptors in vivo by measuring the ability to inhibit 5-MeO-DMT induced 5-HT syndrome.
Male Wistar rats (Mol:Wist) weighing 170-240 g are used. Test substance is injected s.c. before 5-MeO-DMT 5 mg/kg, s.c. Four rats are used for each dose. A control group pretreated with saline is included each test day. 10, 15 and 20 min later the rats are observed for presence of serotonin (5-HT) syndrome. The following symptoms are recorded: 1) forepaw treading ("piano playing"), 2) head weaving and 3) hindleg abduction. Furthermore, flat motility is scored. Each part of the syndrome is scored as follows: marked effect (score 2), weak syndrome (score 1) and no effect (score 0). The scores of the three observation periods are added. Thus the maximum obtainable score for four rats is 24. The effect of the test substance is expressed as percent inhibition relative to the control group.
The percent inhibition of the piano playing syndrome is used as the response and ED50 value are calculated by log-probit analysis.

| Structure (SMILES) | ED50 (5-HT1A receptor [1]) [µmol/kg] | ED50 (5-HT1A receptor [2]) [µmol/kg] | IC50 (5-HT1A receptor [3]) [nM] | ED50 (5-HT1A receptor [4]) [µmol/kg] | agonist activity/efficacy in words, 8-OH-DPAT cue (5-HT1A receptor [2]) | response, 8-OH-DPAT cue agonism (5-HT1A receptor [2]; at 0.6-2.4 μmol/kg, s.c. (note c)) | response, 8-OH-DPAT cue agonism (5-HT1A receptor [2]; at 0.04-10 μmol/kg, s.c. (note a)) | 5-HT1A agonist activity, in words (5-HT1A) | antidepressant and anxiolytic effects, in words (5-HT1A; Schipper et al, Human Psychopharm., 1991) |
| --- | --- | --- | --- | --- | --- | --- | --- | --- | --- |
| O=C1CC2(CCCC2)CC(=O)N1CCCCN1CCN(c2ncccn2)CC1 [Buspirone, 8-[4-[4-(2-pyrimidyl)-1-piperazinyl]butyl]-8-azaspiro[4,5]decane-7,9-dione] | – | – | – | – | – | – | – | 5-HT1A partial agonists | – |
| O=C(NCCN1CCN(c2cccc3c2OCC(CO)O3)CC1)c1ccc(F)cc1 (stereo not shown) [Flesinoxane, 4-fluoro-N-[2-(4-(2-hydroxymethyl-1,4-benzodioxan-5-yl)piperazine-1-yl)ethyl]benzamide, reference compound] | – | 0.38 | 4 | > 44 | – | – | – | high efficacy 5-HT1A agonist | antidepressant and anxiolytic effects |
| O=S(=O)(CCCN1CCN(c2cccc3c2OCCO3)CC1)C1CCCCC1 [Compound 1a, 1-(1,4-Benzodioxan-5-yl)-4-(3-cyclohexylsulfonyl-1-propyl)piperazine] | > 0.62 | 0.034 | 2.6 | 2.3 | – | – | – | – | – |
| CC(C)S(=O)(=O)CCCN1CCN(c2cccc3c2OCCO3)CC1 [Compound 1e, 1-(1,4-Benzodioxan-5-yl)-4-(3-isopropylsulfonyl-1-propyl)piperazine] | > 10 | – | 23 | 5.1 | partial agonist | – | 30-75% | – | – |

More lines, main results first:

| ED50 (5-HT1A receptor [1]) [µmol/kg] | ED50 (5-HT1A receptor [2]) [µmol/kg] | IC50 (5-HT1A receptor [3]) [nM] | ED50 (5-HT1A receptor [4]) [µmol/kg] | agonist activity/efficacy in words, 8-OH-DPAT cue (5-HT1A receptor [2]) | response, 8-OH-DPAT cue agonism (5-HT1A receptor [2]; at 0.6-2.4 μmol/kg, s.c. (note c)) | response, 8-OH-DPAT cue agonism (5-HT1A receptor [2]; at 0.04-10 μmol/kg, s.c. (note a)) | Structure (SMILES) | 5-HT1A agonist activity, in words (5-HT1A) | antidepressant and anxiolytic effects, in words (5-HT1A; Schipper et al, Human Psychopharm., 1991) |
| --- | --- | --- | --- | --- | --- | --- | --- | --- | --- |
| > 11 | 3.1 | 16 | 6.6 | – | – | – | O=C1N(CCCN2CCN(c3cccc4c3OCCO4)CC2)CCN1c1ccccc1 [Compound 2a, 1-[3-[4-(1,4-Benzodioxan-5-yl)-1-piperazinyl]-1-propyl]-3-phenyl-2-imidazolidinone] | – | – |
| > 2.6 | 0.76 | 13 | 15 | – | – | – | O=C1N(CCN2CCN(c3cccc4c3OCCO4)CC2)CCN1c1ccccc1 [Compound 2c, 1-[2-[4-(1,4-Benzodioxan-5-yl)-1-piperazinyl]ethyl]-3-phenyl-2-imidazolidinone] | – | – |
| > 11 | 1.6 | 37 | 10 | – | – | – | O=C1N(CCCN2CCN(c3cccc4c3OCC4)CC2)CCN1c1ccccc1 [Compound 2g, 1-[3-[4-(2,3-Dihydrobenzofuran-7-yl)-1-piperazinyl]-1-propyl]-3-phenyl-2-imidazolidinone] | – | – |
| 2.7 | > 11 | 18 | 8.9 | – | – | – | O=C1N(CCN2CCN(c3cccc4c3OCCO4)CC2)CCN1C1CCCC1 [Compound 2b, 1-[2-[4-(1,4-Benzodioxan-5-yl)-1-piperazinyl]ethyl]-3-cyclopentyl-2-imidazolidinone] | – | – |
| 23 | 27 | 51 | 9 | – | – | – | CC(C)N1CCN(CCN2CCN(c3cccc4c3OCCO4)CC2)C1=O [Compound 2o, 1-[2-[4-(1,4-Benzodioxan-5-yl)-1-piperazinyl]ethyl]-3-isopropyl-2-imidazolidinone] | – | – |
| 6.1 | – | 0.45 | 4.7 | partial agonist | 20-60% | – | O=C1N(CCCCN2CCN(c3cccc4c3OCCO4)CC2)CCN1C1CCCCC1 [Compound 2e, 1-[4-[4-(1,4-Benzodioxan-5-yl)-1-piperazinyl]-1-butyl]-3-cyclohexyl-2-imidazolidione] | – | – |
